In patent US20130316948A1, “GROWTH HORMONE RECEPTOR DEFICIENCY CAUSES A MAJOR REDUCTION IN PRO-AGING SIGNALING, CANCER AND DIABETES IN HUMANS” (UNIVERSITY OF SOUTHERN CALIFORNIA, priority 2011, published 2013):

What was measured:
[1] = system: pancreatic carcinoma cells; conditions: Mol Cancer Ther May 2009 8:1095-1105; cited from earlier work
HMECs = experiment: LDH cytotoxicity assay after H2O2 in epithelial cells incubated in serum; format: cell-based, human; conditions: 200 ng/ml IGF-I added to GHRD serum, 700 μM H2O2
[2] = Short term immunization with human GH before cyclophosphamide: body weight and complete blood count; format: in vivo, mouse; conditions: cyclophosphamide i.p., 300 mg/kg, CBC 7-days after CP
Protocol: FIG. 17A provides plots of the body weight of mice with short term immunization (STI) with human GH (half-filled arrowheads) after cyclophosphamide treatment (cyclophosphamide (CP) i.p., 300 mg/kg, indicated by the solid arrowhead) (Sham means treated with buffer and no chemo);
FIG. 17B provides a histogram of the complete blood count (CBC) 7-days after CP treatment (Data are presented as percentage of pre-chemo value);
FIG. 17A provides plots of the body weight of mice with short term immunization (STI) with human GH (half-filled arrowheads) after cyclophosphamide treatment (cyclophosphamide (CP) i.p., 300 mg/kg, indicated by solid arrowheads). FIG. 17B provides a histogram of the complete blood count (CBC) 7-days after CP treatment (Data are presented as percentage of pre-chemo value).

human GH = human GH (Homo sapiens, UniProt P01241); experiment: Slot blot of anti-huGH activity in serum from mice immunized with huGH; format: in vivo, mouse; conditions: slot blot against immobilized human GH
human GH, sequence (P01241 27-217): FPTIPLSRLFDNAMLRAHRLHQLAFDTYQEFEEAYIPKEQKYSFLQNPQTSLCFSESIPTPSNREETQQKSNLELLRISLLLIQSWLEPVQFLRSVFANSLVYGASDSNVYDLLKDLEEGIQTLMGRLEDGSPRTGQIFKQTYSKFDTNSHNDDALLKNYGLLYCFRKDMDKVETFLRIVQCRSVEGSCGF

[3] = Body weight of mice immunized with human Growth Hormone; format: in vivo, mouse; conditions: 20 male and 20 female mice, versus time
Excerpt: FIG. 16A provides a plot of body weight of mice immunized with human Growth Hormone (huGH) (20 male and 20 female) versus time.
This figure provides a plot of body weight of mice immunized with human Growth Hormone (huGH) (20 male and 20 female) versus time.

primary glial cells = experiment: 24 hour LDH release from primary glial cells under oxidative damage; format: cell-based
Protocol: FIG. 20 provides a plot of the 24 hour lactate dehydrogenase (LDH) release from the treatment of primary glial cells with the IGF-I inhibitor insulin-like growth factor-binding protein 1 (IGFBP1) and with insulin-like growth factor-binding protein 2 (IGFBP2). […] IGFBP1 is a strong IGF-I inhibtor. Other IGFBPs can even increase IGF-I signaling.

## AMG 479: fully human anti-insulin-like growth factor receptor type I monoclonal antibody
[1]
  Effect on pancreatic carcinoma cells: inhibits the growth and survival of pancreatic carcinoma cells

## IGF-I: insulin like growth factor-I, added at 200 ng/ml to GHRD serum
HMECs
  Effect on the higher cytotoxicity seen in GHRD serum: completely reversed

## huGH: human Growth Hormone used to immunize mice to generate inhibitory antibodies against GH
[2]
  Effect of immunization on chemotherapy side effects (body weight, CBC): protective effect against chemotherapy side effects
Human GH
  Immunized mice whose serum showed strong anti-huGH activity: 34 out of 40
[3]
  Body weight of immunized mice: Lower body weight

B1: IGFBP1: IGF-I inhibitor insulin-like growth factor-binding protein 1 (protein, UniProt P08833 26-259, looked up)
Insulin-like growth …: APWQCAPCSAEKLALCPPVSASCSEVTRSAGCGCCPMCALPLGAACGVATARCARGLSCRALPGEQQPLHALTRGQGACVQESDASAPHAAEAGSPESPESTEITEEELLDNFHLMAPSEEDHSILWDAISTYDGSKALHVTNIKKWKEPCRIELYRVVESLAKAQETSGEEISKFYLPNCNKNGFYHSRQCETSMDGEAGLCWCVYPWNGKRIPGSPEIRGDPNCQIYFNVQN
Primary glial cells
  Effect on oxidative damage (LDH release): protects them against oxidative damage
